The record followed here is ChEMBL document CHEMBL3044576, “Synthesis of promising antimicrobial agents: a novel series of N-(4-(2,6-dichloroquinolin-3-yl)-6-(aryl)pyrimidin-2-yl)-2-morpholinoacetamides” (2013).

Structures are written as SMILES. Converted amounts (≈) assume the structure as drawn.

In the first assay the test system is Staphylococcus aureus. Put plainly: Antibacterial activity against Staphylococcus aureus MTCC 96 after 24 to 48 hr by serial broth dilution method. Format: functional.
Settings: not given
The term MIC denotes the smallest concentration in the dilution series that meets the test's criterion for growth inhibition. Low values mean a more susceptible organism, high ones a less susceptible organism. Consider `O=C(CN1CCOCC1)Nc1nc(-c2ccc(F)cc2)cc(-c2cc3cc(Cl)ccc3nc2Cl)n1`, for which it took 500 µg/mL (≈ 976 µM) to inhibit growth (MIC).

As to `O=C(CN1CCOCC1)Nc1nc(-c2ccccc2Cl)cc(-c2cc3cc(Cl)ccc3nc2Cl)n1`, the MIC was 250 µg/mL (≈ 473 µM).

In turn, `O=C(CN1CCOCC1)Nc1nc(-c2ccccc2)cc(-c2cc3cc(Cl)ccc3nc2Cl)n1` yielded a minimal inhibitory concentration (MIC) of 1000 µg/mL (≈ 2020 µM).

In the case of `O=C(CN1CCOCC1)Nc1nc(-c2cccc(F)c2)cc(-c2cc3cc(Cl)ccc3nc2Cl)n1`, the lowest concentration to inhibit growth (MIC) was 250 µg/mL (≈ 488 µM).

In the case of `O=C(CN1CCOCC1)Nc1nc(-c2ccc([N+](=O)[O-])cc2)cc(-c2cc3cc(Cl)ccc3nc2Cl)n1`, the lowest concentration to inhibit growth (MIC) was 100 µg/mL (≈ 185 µM).

Molecule `COc1ccc(-c2cc(-c3cc4cc(Cl)ccc4nc3Cl)nc(NC(=O)CN3CCOCC3)n2)cc1` showed an MIC of 500 µg/mL (≈ 953 µM). This MIC lies about 5-fold higher than the previous one.

Take `CC1(C)S[C@@H]2[C@H](NC(=O)[C@H](N)c3ccccc3)C(=O)N2[C@H]1C(=O)O` [AMPICILLIN]: the MIC was 250 µg/mL (≈ 715 µM). Against the preceding molecule, the MIC is about 2-fold lower.

The subject of another assay is Escherichia coli. As to the kind of experiment: Antibacterial activity against Escherichia coli MTCC 443 after 24 to 48 hr by serial broth dilution method. Format: functional.
Settings: not given
For orientation: Dilution methods test growth across graded concentrations, often in twofold steps.
As to `O=C(CN1CCOCC1)Nc1nc(-c2ccc(F)cc2)cc(-c2cc3cc(Cl)ccc3nc2Cl)n1`, the minimum inhibitory concentration (MIC) worked out at 25 µg/mL (≈ 48.8 µM).

Consider `O=C(CN1CCOCC1)Nc1nc(-c2ccccc2Cl)cc(-c2cc3cc(Cl)ccc3nc2Cl)n1`, for which the minimum inhibitory concentration (MIC) stood at 50 µg/mL (≈ 94.5 µM). Against the preceding molecule, the MIC is about 2-fold higher.

`O=C(CN1CCOCC1)Nc1nc(-c2ccccc2)cc(-c2cc3cc(Cl)ccc3nc2Cl)n1` yielded a minimal inhibitory concentration (MIC) of 500 µg/mL (≈ 1010 µM).

`O=C(CN1CCOCC1)Nc1nc(-c2cccc(F)c2)cc(-c2cc3cc(Cl)ccc3nc2Cl)n1`: the MIC is 100 µg/mL (≈ 195 µM).

As to `O=C(CN1CCOCC1)Nc1nc(-c2ccc([N+](=O)[O-])cc2)cc(-c2cc3cc(Cl)ccc3nc2Cl)n1`, the MIC came out at 250 µg/mL (≈ 463 µM).

On to `COc1ccc(-c2cc(-c3cc4cc(Cl)ccc4nc3Cl)nc(NC(=O)CN3CCOCC3)n2)cc1`, for which the MIC was 250 µg/mL (≈ 477 µM).

Regarding `CC1(C)S[C@@H]2[C@H](NC(=O)[C@H](N)c3ccccc3)C(=O)N2[C@H]1C(=O)O` [AMPICILLIN], the MIC is 100 µg/mL (≈ 286 µM).

Another assay deals with Aspergillus clavatus. Put plainly: Antifungal activity against Aspergillus clavatus MTCC 1323 after 72 hr by serial broth dilution method. Format: functional. The conditions noted are these: MTCC 1323, 72 h.
With `O=C(CN1CCOCC1)Nc1nc(-c2ccc(F)cc2)cc(-c2cc3cc(Cl)ccc3nc2Cl)n1`, the MIC was found to be 12.5 µg/mL (≈ 24.4 µM).

In turn, `O=C(CN1CCOCC1)Nc1nc(-c2ccccc2Cl)cc(-c2cc3cc(Cl)ccc3nc2Cl)n1` yielded a minimum inhibitory concentration (MIC) of 25 µg/mL (≈ 47.3 µM).

As to `O=C(CN1CCOCC1)Nc1nc(-c2ccccc2)cc(-c2cc3cc(Cl)ccc3nc2Cl)n1`, the MIC is 1000 µg/mL (≈ 2020 µM). This MIC lies about 40-fold higher than the previous one.

`O=C(CN1CCOCC1)Nc1nc(-c2cccc(F)c2)cc(-c2cc3cc(Cl)ccc3nc2Cl)n1` registered an MIC of 100 µg/mL (≈ 195 µM). This MIC is about 10-fold lower than that of the molecule before.

As for `O=C(CN1CCOCC1)Nc1nc(-c2ccc([N+](=O)[O-])cc2)cc(-c2cc3cc(Cl)ccc3nc2Cl)n1`, 25 µg/mL (≈ 46.3 µM) was the least that counted as inhibitory (MIC).

Molecule `COc1ccc(-c2cc(-c3cc4cc(Cl)ccc4nc3Cl)nc(NC(=O)CN3CCOCC3)n2)cc1` had an MIC of 500 µg/mL (≈ 953 µM).

The subject of the next assay is Streptococcus pyogenes. Put plainly: Antibacterial activity against Streptococcus pyogenes MTCC 442 after 24 to 48 hr by serial broth dilution method. Format: functional.
Settings: not given
Molecule `O=C(CN1CCOCC1)Nc1nc(-c2ccc(F)cc2)cc(-c2cc3cc(Cl)ccc3nc2Cl)n1` came in with an MIC of 100 µg/mL (≈ 195 µM).

With `O=C(CN1CCOCC1)Nc1nc(-c2ccccc2Cl)cc(-c2cc3cc(Cl)ccc3nc2Cl)n1`, the MIC was determined as 100 µg/mL (≈ 189 µM).

`O=C(CN1CCOCC1)Nc1nc(-c2ccccc2)cc(-c2cc3cc(Cl)ccc3nc2Cl)n1` gave an MIC of 1000 µg/mL (≈ 2020 µM).

The molecule `O=C(CN1CCOCC1)Nc1nc(-c2cccc(F)c2)cc(-c2cc3cc(Cl)ccc3nc2Cl)n1` displayed an MIC of 500 µg/mL (≈ 976 µM).

For the molecule `O=C(CN1CCOCC1)Nc1nc(-c2ccc([N+](=O)[O-])cc2)cc(-c2cc3cc(Cl)ccc3nc2Cl)n1`, it took 250 µg/mL (≈ 463 µM) to inhibit growth (MIC).

`COc1ccc(-c2cc(-c3cc4cc(Cl)ccc4nc3Cl)nc(NC(=O)CN3CCOCC3)n2)cc1`: the MIC was determined as 500 µg/mL (≈ 953 µM).

`CC1(C)S[C@@H]2[C@H](NC(=O)[C@H](N)c3ccccc3)C(=O)N2[C@H]1C(=O)O` [AMPICILLIN] gave a minimal inhibitory concentration (MIC) of 100 µg/mL (≈ 286 µM).

The next assay concerns Candida albicans. As to the kind of experiment: Antifungal activity against Candida albicans MTCC 227 after 72 hr by serial broth dilution method. Format: functional. The conditions noted are these: MTCC 227, 72 h.
For the molecule `O=C(CN1CCOCC1)Nc1nc(-c2ccc(F)cc2)cc(-c2cc3cc(Cl)ccc3nc2Cl)n1`, the minimal inhibitory concentration (MIC) stood at 500 µg/mL (≈ 976 µM).

`O=C(CN1CCOCC1)Nc1nc(-c2ccccc2Cl)cc(-c2cc3cc(Cl)ccc3nc2Cl)n1` returned an MIC of 500 µg/mL (≈ 945 µM).

For `O=C(CN1CCOCC1)Nc1nc(-c2ccccc2)cc(-c2cc3cc(Cl)ccc3nc2Cl)n1`, the MIC is 1000 µg/mL (≈ 2020 µM).

For the molecule `O=C(CN1CCOCC1)Nc1nc(-c2cccc(F)c2)cc(-c2cc3cc(Cl)ccc3nc2Cl)n1`, the MIC was found to be 1000 µg/mL (≈ 1950 µM).

Molecule `O=C(CN1CCOCC1)Nc1nc(-c2ccc([N+](=O)[O-])cc2)cc(-c2cc3cc(Cl)ccc3nc2Cl)n1` returned an MIC of 250 µg/mL (≈ 463 µM).

The molecule `COc1ccc(-c2cc(-c3cc4cc(Cl)ccc4nc3Cl)nc(NC(=O)CN3CCOCC3)n2)cc1` yielded an MIC of 1000 µg/mL (≈ 1910 µM). This MIC is about 4-fold higher than that of the molecule before.

The subject of a further assay is Pseudomonas aeruginosa. Put plainly: Antibacterial activity against Pseudomonas aeruginosa MTCC 1688 after 24 to 48 hr by serial broth dilution method. It is filed as functional.
Settings: not given
For `O=C(CN1CCOCC1)Nc1nc(-c2ccc(F)cc2)cc(-c2cc3cc(Cl)ccc3nc2Cl)n1`, inhibition of growth (MIC) required 250 µg/mL (≈ 488 µM).

The molecule `O=C(CN1CCOCC1)Nc1nc(-c2ccccc2Cl)cc(-c2cc3cc(Cl)ccc3nc2Cl)n1` gave a minimum inhibitory concentration (MIC) of 250 µg/mL (≈ 473 µM).

For the molecule `O=C(CN1CCOCC1)Nc1nc(-c2ccccc2)cc(-c2cc3cc(Cl)ccc3nc2Cl)n1`, the MIC is 250 µg/mL (≈ 506 µM).

Regarding `O=C(CN1CCOCC1)Nc1nc(-c2cccc(F)c2)cc(-c2cc3cc(Cl)ccc3nc2Cl)n1`, the MIC worked out at 100 µg/mL (≈ 195 µM).

The molecule `O=C(CN1CCOCC1)Nc1nc(-c2ccc([N+](=O)[O-])cc2)cc(-c2cc3cc(Cl)ccc3nc2Cl)n1` came in with an MIC of 250 µg/mL (≈ 463 µM). This MIC is about 2.5-fold higher than that of the molecule before.

The molecule `COc1ccc(-c2cc(-c3cc4cc(Cl)ccc4nc3Cl)nc(NC(=O)CN3CCOCC3)n2)cc1` returned an MIC of 250 µg/mL (≈ 477 µM).

With `CC1(C)S[C@@H]2[C@H](NC(=O)[C@H](N)c3ccccc3)C(=O)N2[C@H]1C(=O)O` [AMPICILLIN], inhibition of growth (MIC) required 100 µg/mL (≈ 286 µM).

For another assay, the system named is Aspergillus niger. As to the kind of experiment: Antifungal activity against Aspergillus niger MTCC 282 after 72 hr by serial broth dilution method. It is filed as functional. The conditions noted are these: MTCC 282, 72 h.
`O=C(CN1CCOCC1)Nc1nc(-c2ccc(F)cc2)cc(-c2cc3cc(Cl)ccc3nc2Cl)n1` returned an MIC of 1000 µg/mL (≈ 1950 µM).

With `O=C(CN1CCOCC1)Nc1nc(-c2ccccc2Cl)cc(-c2cc3cc(Cl)ccc3nc2Cl)n1`, the MIC came out at 100 µg/mL (≈ 189 µM). This MIC is about 10-fold lower than that of the molecule before.

For the molecule `O=C(CN1CCOCC1)Nc1nc(-c2ccccc2)cc(-c2cc3cc(Cl)ccc3nc2Cl)n1`, the MIC is 1000 µg/mL (≈ 2020 µM).

`O=C(CN1CCOCC1)Nc1nc(-c2cccc(F)c2)cc(-c2cc3cc(Cl)ccc3nc2Cl)n1` yielded a minimal inhibitory concentration (MIC) of 100 µg/mL (≈ 195 µM).

With `O=C(CN1CCOCC1)Nc1nc(-c2ccc([N+](=O)[O-])cc2)cc(-c2cc3cc(Cl)ccc3nc2Cl)n1`, inhibition of growth (MIC) required 100 µg/mL (≈ 185 µM).

Molecule `COc1ccc(-c2cc(-c3cc4cc(Cl)ccc4nc3Cl)nc(NC(=O)CN3CCOCC3)n2)cc1` returned a minimal inhibitory concentration (MIC) of 500 µg/mL (≈ 953 µM). This MIC lies about 5-fold higher than the previous one.
